Reference: the NIST ThermoML archive (doi:10.1016/j.jct.2012.09.013)
Numbers after ± are expanded uncertainties.

Experiments:
[1] = 101.33 kPa, Liquid; for viscosity: Capillary tube (Ostwald / Ubbelohde) method; for speed of sound: Linear variable-path acoustic interferometer; for mass density: Pycnometric method
[2] = mn = molality of the nth substance listed, in mol/kg; details: 101 kPa, Liquid, m2 = 0; for viscosity: Capillary tube (Ostwald / Ubbelohde) method; for speed of sound: Linear variable-path acoustic interferometer; for mass density: Pycnometric method

viscosity ([1]; 303 K)	speed of sound ([1]; 303 K)	mass density ([1]; 303 K)	viscosity ([1]; 308 K)	speed of sound ([1]; 308 K)	mass density ([1]; 308 K)	viscosity ([1]; 313 K)	speed of sound ([1]; 313 K)	mass density ([1]; 313 K)	SMILES	viscosity ([2]; 303 K)	speed of sound ([2]; 303 K)	mass density ([2]; 303 K)	viscosity ([2]; 308 K)	speed of sound ([2]; 308 K)	mass density ([2]; 308 K)	viscosity ([2]; 313 K)	speed of sound ([2]; 313 K)	mass density ([2]; 313 K)
0.7588 ± 0.15 mPa·s	1442 ± 6 m/s	941.7 ± 0.7 kg/m3	0.7056 ± 0.14 mPa·s	1432 ± 5.9 m/s	937.2 ± 0.7 kg/m3	0.6353 ± 0.13 mPa·s	1402 ± 5.8 m/s	933.6 ± 0.6 kg/m3	CN(C)C=O [dimethylformamide]									
									CN(C)C=O [dimethylformamide] + CC(=O)N1N=C(CSc2nc3ccccc3c(=O)n2-c2ccccc2C)OC1(C)c1ccc(C)cc1	0.7588 ± 0.15 mPa·s	1442 ± 6 m/s	941.7 ± 0.7 kg/m3	0.7056 ± 0.14 mPa·s	1432 ± 5.9 m/s	937.2 ± 0.7 kg/m3	0.6353 ± 0.13 mPa·s	1402 ± 5.8 m/s	933.6 ± 0.6 kg/m3
									CN(C)C=O [dimethylformamide] + COc1ccc(C2(C)OC(CSc3nc4ccccc4c(=O)n3-c3ccccc3C)=NN2C(C)=O)cc1	0.7588 ± 0.15 mPa·s	1442 ± 6 m/s	941.7 ± 0.7 kg/m3	0.7056 ± 0.14 mPa·s	1432 ± 5.9 m/s	937.2 ± 0.7 kg/m3	0.6353 ± 0.13 mPa·s	1402 ± 5.8 m/s	933.6 ± 0.6 kg/m3
0.6628 ± 0.13 mPa·s	960 ± 4 m/s	1475.3 ± 20 kg/m3	0.6279 ± 0.13 mPa·s	950.8 ± 4 m/s	1470.8 ± 20 kg/m3	0.5781 ± 0.12 mPa·s	932.4 ± 3.9 m/s	1465.8 ± 20 kg/m3	ClC(Cl)Cl [trichloromethane]									
									ClC(Cl)Cl [trichloromethane] + CC(=O)N1N=C(CSc2nc3ccccc3c(=O)n2-c2ccccc2C)OC1(C)c1ccc(C)cc1	0.6628 ± 0.13 mPa·s	960 ± 4 m/s	1475.3 ± 20 kg/m3	0.6279 ± 0.13 mPa·s	950.8 ± 4 m/s	1470.8 ± 20 kg/m3	0.5781 ± 0.12 mPa·s	932.4 ± 3.9 m/s	1465.8 ± 20 kg/m3
									ClC(Cl)Cl [trichloromethane] + COc1ccc(C2(C)OC(CSc3nc4ccccc4c(=O)n3-c3ccccc3C)=NN2C(C)=O)cc1	0.6628 ± 0.13 mPa·s	960 ± 4 m/s	1475.3 ± 20 kg/m3	0.6279 ± 0.13 mPa·s	950.8 ± 4 m/s	1470.8 ± 20 kg/m3	0.5781 ± 0.12 mPa·s	932.4 ± 3.9 m/s	1465.8 ± 20 kg/m3
